The record followed here is patent US11713318B2, “Short conjugated oligoelectrolytes and uses thereof” (The Regents Of The University Of California, priority 2018, dated 2023).

Series [1] can be described thus: Solubility in aqueous media. The format is physicochemical. To be noted: reason why efficacy could not be detected.
For series [2], the system named is Hep G2 (ATCC HB-8065) cells. Kind of series: Cytotoxicity, MTT assay. The format is cell-based. To be noted: Homo sapiens, HepG2, 24 h, Hep G2; MTT, 24 hours incubation; read-out: IC50. As to the method: (§1) Before removing the frozen cell stocks from liquid nitrogen, culture medium was pre-warmed to 37° C. The frozen tube was then removed from liquid nitrogen and placed into a 37° C. water bath and shaken gently to thaw the cell stock as quickly as possible. A small portion of the pre-warmed culture medium was added to the cell solution. The cell suspension was then centrifuged at 1000 r/min for 3 minutes. The supernatant was discarded and the cells were resuspended in fresh culture medium.
(§2) NIH 3T3 (ATCC CRL-1658) and Hep G2 (ATCC HB-8065) cells were cultured with DMEM+10% FBS in 100 mm dishes. Cells were lifted for subculture or testing when confluence reached ˜60% by treating with 1× trypsin (incubated for 3 min at 37° C.). J774 (ATCC TIB-67) cells were cultured with DMEM+10% FBS in 100 mm dishes. Cells were lifted for subculture or testing when confluence reached ˜80% using a cell scraper. RAW264.7 (ATCC TIB-71) cells were cultured with DMEM+10% heat-inactivated FBS+1% pen/strep in T75 flasks. Cells were lifted for subculture or testing when confluence reached ˜80% using a cell scraper.
(§3) • 1. Cells were lifted and resuspended in culture medium. The number of cells in the cell suspension was determined using an auto-cell counter: 10 μL of the cell suspension was mixed with 10 μL 1× trypan blue (filtered with 0.2 μm PES filter) and the mixture was loaded onto a cell counting slide. Based on the concentration of viable cells, the cell suspension was further diluted to achieve the desired density. • 2. Cells were seeded in 96 well plates by adding 100 μL final cell suspension column-by-column using a multichannel pipette (5000 cells/well for NIH 3T3, 10000 cells/well for Hep G2, J774 and RAW264.7). The outer wells were block with PBS to reduce the effects of evaporation. One column was filled with only culture medium as a blank. Cells were incubated overnight before adding the test articles. • 3. Test articles were dissolved in 1×PBS (or DMSO) to obtain stocks solution. Stock solutions were pre-warmed before use. […] Serial dilutions (2-fold) of the 10× solutions were made in sterile culture tubes by diluting in 1×PBS (8 dilutions to yield 9 test concentrations). 900 μL of culture media was added to each tube to obtain final drug solution containing 10% PBS (or less than 1% DMSO) for each experimental group. • 4. The original culture medium was gently removed from the 96-well plates using a pipette. 100 μL of the test article solutions prepared in Step 3 were added to rows 2-7 of each column to obtain six replicates for each concentration. Plates were then incubated for 24 hours. • 5. MTT solutions were prepared by dissolving commercial MTT powder in 1×PBS to a concentration of 5 mg/mL. After passing through a 0.22 μm PES filter, the MTT solution was divided into 1 mL portions in sterile centrifuge tubes and stored at −20° C. • 6. MTT stock solutions were removed from the freezer to thaw at room temperature. Before adding MTT solutions, cell cultures were visually inspected and imaged using a microscope (to use as a comparison with MTT results). 10 μL of the 5 mg/mL MTT solution was added to each well and the plate was incubated for 4 hours. • 7. After 4 h incubation, the culture medium/MT solution was removed gently using a pipette. 100 μL of DMSO was added to each well using a multichannel pipette. The 96-well plates were analyzed in a plate reader using the following method: shake for 5 minutes, wait for 30 seconds, and measure absorbance at 570 nm. • 8. Data processing: The average of background Abg was calculated from the blank column. All other data was first treated by subtracting Abg. The average A. and standard deviation Se of each experimental group and the average Ac and standard deviation Sc for control group (with pure culture medium incubation) were then calculated. The cell viability was determined as Ae/Ac×100% and corresponding error as Se/Ae×100%. Significant outliers in any experimental or control group were removed. […]

The subject of series [3] is primary human hepatocytes. Kind of series: Cytotoxicity tested by Eurofins Pharma Discovery Services. To be noted: for IC50: data provided by Eurofins. It is filed as cell-based.
For series [4], the system named is S. epidermidis (ATCC 14990). Briefly: MIC broth microdilution method, Table 3.
The test system of series [5] is Hep G2 cells. Kind of series: Cytotoxicity tested by Eurofins Pharma Discovery Services. It is filed as cell-based. To be noted: for IC50: Hep G2, data provided by Eurofins.
The subject of series [6] is E. coli K12 (ATCC 47076). Briefly: MIC broth microdilution method, Table 3.
Series [7] concerns HRPTEpiC. Briefly: Cytotoxicity tested by Eurofins Pharma Discovery Services. It is filed as cell-based. The conditions noted are these: data provided by Eurofins.
The subject of series [8] is J774 (ATCC TIB-67) cells. Kind of series: Cytotoxicity, MTT assay. It is filed as cell-based. The conditions noted are these: for IC50: MTT, 24 hours incubation. As to the method:
as §1, §2, §3

Series [9] concerns NIH 3T3 (ATCC CRL-1658) cells. Kind of series: Cytotoxicity, MTT assay. The format is cell-based. The conditions noted are these: NIH 3T3; for IC50: MTT, 24 hours incubation. As to the method: as §1, §2, §3
The test system of series [10] is K. pneumoniae ATCC BAA-2473 (MDR). Kind of series: MIC against resistant strains, Tables 5a-5d. The format is cell-based. To be noted: Klebsiella pneumoniae, ATCCBAA2473, n = 3. As to the method:
(§4) Compounds described herein were evaluated for growth inhibition against a variety of bacterial species, including strains that have developed resistance to common antibacterial treatments, according to the procedure described herein, or by analogous procedures known to those skilled in the art. Resistant bacterial strains used for compound testing include methicillin-resistant S. aureus (MRSA), vancomycin resistant Enterococci (VRE) and various multi-drug resistant (MDR) strains commonly associated with hospital-acquired (nosocomial) infections, including, but not limited to A. baumannii, K. pnuemoniae, and E. cloacae.

For series [11], the system named is A. baumannii 1674627 (MDR). Briefly: MIC against resistant strains, Tables 5a-5d. It is filed as cell-based. The conditions noted are these: Acinetobacter baumannii, n = 3. As to the method:
as §4

Series [12] deals with P. aeruginosa 1674623 (MDR). Briefly: MIC against resistant strains, Tables 5a-5d. It is filed as cell-based. The conditions noted are these: Pseudomonas aeruginosa, n = 3. As to the method: as §4
For series [13], the system named is S. aureus ATCC BAA-1717 (MRSA). Briefly: MIC against resistant strains, Tables 5a-5d. The format is cell-based. The conditions noted are these: Staphylococcus aureus, n = 3. As to the method:
as §4

Series [14] concerns K. pneumoniae CDC0010 (MDR). Kind of series: MIC against resistant strains, Tables 5a-5d. The conditions noted are these: Klebsiella pneumoniae, n = 3. It is filed as cell-based. As to the method:
as §4

In series [15] the test system is E. coli ATCC25922 (WT). Briefly: MIC against resistant strains, Tables 5a-5d. The format is cell-based. The conditions noted are these: Escherichia coli, n = 3. As to the method: as §4
The subject of series [16] is E. cloacae 1744299 (ESBL). Briefly: MIC against resistant strains, Tables 5a-5d. It is filed as cell-based. The conditions noted are these: Enterobacter cloacae, n = 3. As to the method: as §4
Series [17] deals with S. aureus ATCC 33591 (MRSA). Kind of series: MIC against resistant strains, Tables 5a-5d. It is filed as cell-based. To be noted: Staphylococcus aureus, n = 3. As to the method: as §4
Series [18] has as its system P. aeruginosa CDC0248 (MDR). Briefly: MIC against resistant strains, Tables 5a-5d. It is filed as cell-based. The conditions noted are these: Pseudomonas aeruginosa, n = 3. As to the method:
as §4

Series [19] has as its system A. baumannii CDC0290 (MDR). Kind of series: MIC against resistant strains, Tables 5a-5d. The conditions noted are these: Acinetobacter baumannii, n = 3. The format is cell-based. As to the method: as §4
For series [20], the system named is E. faecium 1674620 (VRE). Kind of series: MIC against resistant strains, Tables 5a-5d. The format is cell-based. To be noted: Enterococcus faecium, n = 3. As to the method:
as §4

The subject of series [21] is K. aerogenes (ATCC 13048). Kind of series: MIC broth microdilution method, Table 3.
Series [22] has as its system RAW264.7 (ATCC TIB-71) cells. Kind of series: Cytotoxicity, MTT assay. It is filed as cell-based, murine. To be noted: RAW 264.7. As to the method: as §1, §2
• 1. Cells were lifted and resuspended in culture medium. The number of cells in the cell suspension was determined using an auto-cell counter: 10 μL of the cell suspension was mixed with 10 μL 1× trypan blue (filtered with 0.2 μm PES filter) and the mixture was loaded onto a cell counting slide. Based on the concentration of viable cells, the cell suspension was further diluted to achieve the desired density. • 2. […] The 96-well plates were analyzed in a plate reader using the following method: shake for 5 minutes, wait for 30 seconds, and measure absorbance at 570 nm. • 8. Data processing: The average of background Abg was calculated from the blank column. […] The average A. and standard deviation Se of each experimental group and the average Ac and standard deviation Sc for control group (with pure culture medium incubation) were then calculated. The cell viability was determined as Ae/Ac×100% and corresponding error as Se/Ae×100%. […]

[23] abbreviates: at the concentration given as IC50 bound.

Read-outs that look alike come from different tables or passages of the source.

Consider `CC(C)(C)c1cc[n+](CCCCCCOc2cc(/C=C/c3cc(OCCCCCC[n+]4ccc(C(C)(C)C)cc4)cc(OCCCCCC[n+]4ccc(C(C)(C)C)cc4)c3)cc(OCCCCCC[n+]3ccc(C(C)(C)C)cc3)c2)cc1.[I-].[I-].[I-].[I-]` [Formula D], for which, in series [1], the solubility entry is on record as “low solubility”. Further, the IC50 in series [2] was 20.7 mg/L.

As to `CCCCCC[N+](C)(C)CCCCOc1cc(/C=C/c2ccc(/C=C/c3cc(OCCCC[N+](C)(C)CCCCCC)cc(OCCCC[N+](C)(C)CCCCCC)c3)cc2)cc(OCCCC[N+](C)(C)CCCCCC)c1.[I-].[I-].[I-].[I-]` [Formula T], the IC50 in series [3] (Hepatocyte, read-out: IC50) turned out to be 31.8 mg/L; in series [5] (Homo sapiens, HepG2, read-out: IC50), 11.6 mg/L; in series [7] (read-out: IC50), 2.8 mg/L; in series [2], 15.3 mg/L; in series [8] (Mus musculus, read-out: IC50) it was 4.6 mg/L; in series [9] (Mus musculus, NIH3T3, read-out: IC50), 12.4 mg/L. The MIC in series [4] (Staphylococcus epidermidis, ATCC14990) was found to be 1 mg/L; in [6] (Escherichia coli, ATCC47076), 4 mg/L; in [10], 4 mg/L; in [11], 2 mg/L; in series [12], 16 mg/L; in series [13], 1 mg/L. The MIC was determined as 4 mg/L in series [14]; 2 mg/L in [15]; 2 mg/L in [16]; 0.5 mg/L in series [17]; 32 mg/L in series [18]; 4 mg/L in [19]. Besides, the MIC was determined as 0.25 mg/L in [20] and 8 mg/L in [21] (Klebsiella aerogenes, ATCC13048).

Consider Colistin [reference compound], for which the “cell viability at the highest or lowest test concentration” value is given as “(101%)” in series [3] (Eurofins, at the concentration given as IC50 bound); “(109%)” in series [22] (setting [23]); “(100%)” in [5] (Hep G2, Eurofins, at the concentration given as IC50 bound); “(115%)” in series [8] (setting [23]); “(104%)” in series [9] (setting [23]). Further, the IC50 was above 324 mg/L in series [3]; above 20 mg/L in series [22] (MTT, 24 hours incubation); above 324 mg/L in series [5]; 215 mg/L in [7]; above 128 mg/L in [8]; above 128 mg/L in series [9]. In addition, the MIC in series [4] (S. epidermidis (+), BHI medium, less than 10% relative growth) was above 64 mg/L; in [6] (E. coli K12 (−), LB medium, less than 10% relative growth), 1 mg/L; in series [21] (K. aerogenes (−), LB medium, less than 10% relative growth), 2 mg/L.
